How the values were obtained:
[1] = test system: lung epithelial cell line Mv1Lu; assay: Cellular assay for TGF-beta receptor I kinase inhibitors: elimination of TGF-beta-mediated growth inhibition (example 13); assay type: cell-based; details: 48 h; Mv1Lu cells, 1 ng/ml TGF-beta, 0.5% FCS, two days, Crystal Violet staining; read-out: TβR activity (example 13)
Procedure: Cellular Assay for Testing TGF-Beta Receptor I Kinase Inhibitors
As an example, the ability of the inhibitors to eliminate TGF-beta-mediated growth inhibition was tested. Cells of the lung epithelial cell line Mv1Lu were sown in a defined cell density in a 96-well microtiter plate and cultivated overnight under standard conditions. Next day, the medium was replaced by medium which comprises 0.5% of FCS and 1 ng/ml of TGF-beta, and the test substances were added in defined concentrations, generally in the form of dilution series with 5 fold steps. The concentration of the solvent DMSO was constant at 0.5%. After a further two days, Crystal Violet staining of the cells was carried out. After extraction of the Crystal Violet from the fixed cells, the absorption was measured spectrophotometrically at 550 nm. It could be used as a quantitative measure of the adherent cells present and thus of the cell proliferation during the culture.

[2] = biological target: T1, GST-ALK5 (Homo sapiens, UniProt P36897); assay: In-vitro (enzyme) kinase assay, 384-well flashplate (example 14); assay type: biochemical; details: GST-ALK5, GST-SMAD2 substrate, 33P-ATP flashplate, 30° C. 45 min; IC50 classes; read-out: TβR activity (example 14)
T1 sequence (P36897 34-503): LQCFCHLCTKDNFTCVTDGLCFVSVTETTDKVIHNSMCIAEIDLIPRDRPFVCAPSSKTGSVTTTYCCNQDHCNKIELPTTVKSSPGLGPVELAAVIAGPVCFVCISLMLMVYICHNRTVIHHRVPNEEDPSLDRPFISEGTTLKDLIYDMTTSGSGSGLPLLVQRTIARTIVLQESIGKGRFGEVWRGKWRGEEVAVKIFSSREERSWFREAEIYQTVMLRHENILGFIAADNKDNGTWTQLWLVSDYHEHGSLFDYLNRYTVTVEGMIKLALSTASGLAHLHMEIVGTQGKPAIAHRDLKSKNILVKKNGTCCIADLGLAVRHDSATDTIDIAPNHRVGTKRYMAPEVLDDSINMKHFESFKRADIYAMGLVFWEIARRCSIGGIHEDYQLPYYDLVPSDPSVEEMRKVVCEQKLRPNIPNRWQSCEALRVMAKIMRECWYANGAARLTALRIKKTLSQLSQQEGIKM
Procedure: In-Vitro (Enzyme) Assay for Determination of the Efficacy of Inhibitors of the Inhibition of TGF-Beta-Mediated Effects
The kinase assay was carried out as 384-well flashplate assay. 31.2 nM of GST-ALK5, 439 nM of GST-SMAD2 and 3 mM of ATP (with 0.3 μCi of ^33P-ATP/well) were incubated in a total volume of 35 μl (20 mM of HEPES, 10 mM of MgCl2, 5 mM of MnCl2, 1 mM of DTT, 0.1% of BSA, pH 7.4) without or with test substance (5-10 concentrations) at 30° C. for 45 min. The reaction was stopped using 25 μl of 200 mM EDTA solution, filtered with suction at room temperature after 30 min, and the wells were washed with 3 times 100 μl of 0.9% NaCl solution. Radioactivity was measured in the TopCount. The IC50 values were calculated using RS1. Above and below, all temperatures were indicated in ° C.

SMILES	IC50 [2] [nM]	IC50 [1] [nM]
CC(=O)Nc1nccc(Nc2cc(-c3cc(Cl)ccc3F)nc3ncccc23)n1 [compound 98]	< 100	< 100
O=C(CO)Nc1cc(Nc2cc(-c3cc(Cl)ccc3F)nc3ncccc23)ccn1 [compound 82]	< 100	< 100
NCCCC(=O)Nc1cc(Nc2cc(-c3cc(Cl)ccc3F)nc3ncccc23)ncn1 [compound 135]	< 100	100 to 1000
O=[N+]([O-])c1cn(-c2cc(-c3cc(Cl)ccc3F)nc3ncccc23)c2ccncc12 [compound 139]	< 100	1000 to 10000
COCCNc1cc(Nc2cc(-c3cc(F)ccc3F)nc3ncccc23)ncn1 [compound 138]	100 to 1000	100 to 1000
Cc1ccc(-c2cc(Nc3ccncc3)c3cccnc3n2)o1 [compound 123]	100 to 1000	100 to 1000
CCOC(=O)NCC(=O)Nc1cc(Nc2cc(-c3cc(Cl)ccc3F)nc3ncccc23)ncn1 [compound 130]	< 100	< 100
O=c1[nH]cc(-c2cc(-c3cc(Cl)ccc3F)nc3ncccc23)c2ccncc12 [compound 140]	< 100	< 100
CN(C)c1cc(Nc2cc(-c3cc(F)ccc3F)nc3ncccc23)ncn1 [compound 137]	> 10000	> 10000
CN(C)CCNC(=O)c1cnccc1Nc1cc(-c2cc(Cl)ccc2F)nc2ncccc12 [compound 72]	< 100	< 100
CS(=O)(=O)Nc1cc(Nc2cc(-c3cc(Cl)ccc3F)nc3ncccc23)ccn1 [compound 74]	100 to 1000	1000 to 10000

Second part, led by results:

IC50 [2] [nM]	SMILES	IC50 [1] [nM]
1000 to 10000	CCN1CCC(Nc2cc(Nc3cc(-c4cc(Cl)ccc4F)nc4ncccc34)ncn2)CC1 [compound 127]	1000 to 10000
< 100	CCN1CCC(CNc2cc(Nc3cc(-c4cc(F)ccc4F)nc4ncccc34)ncn2)CC1 [compound 141]	100 to 1000
< 100	CC(C)(C)OC(=O)NCCCC(=O)Nc1cc(Nc2cc(-c3cc(Cl)ccc3F)nc3ncccc23)ncn1 [compound 131]	< 100
< 100	Fc1ccc(Cl)cc1-c1cc(-n2cc(Br)c3cnccc32)c2cccnc2n1 [compound 144]	< 100
< 100	Fc1ccc(Cl)cc1-c1cc(-n2ncc3cnccc32)c2cccnc2n1 [compound 73]	< 100
100 to 1000	Fc1ccc(F)c(-c2cc(Nc3cc(Cl)ncn3)c3cccnc3n2)c1 [compound 103]	> 10000
< 100	CC(C)(C)CC(=O)Nc1cc(Nc2cc(-c3cc(F)ccc3F)nc3ncccc23)ncn1 [compound 105]	100 to 1000
> 10000	O=C(CCN1CCNCC1)Nc1cc(Nc2cc(-c3cc(Cl)ccc3F)nc3ncccc23)ncn1 [compound 102]	> 10000
< 100	CC(=O)Nc1cc(Nc2cc(-c3ccccc3F)nc3ncccc23)ncn1 [compound 88]	100 to 1000
100 to 1000	O=c1c2cnccc2c(-c2cc(-c3cc(Cl)ccc3F)nc3ncccc23)cn1CCN1CCCC1 [compound 146]	100 to 1000
> 10000	Cc1cccc(-c2cc(Nc3cc(F)nc(N4CCOCC4)n3)c3cccnc3n2)n1 [compound 84]	> 10000
< 100	Cc1cccc(-c2cc(Nc3ccncc3Cl)c3cccnc3n2)n1 [compound 80]	< 100
< 100	CC(C)NC(=O)c1cnccc1Nc1cc(-c2cc(Cl)ccc2F)nc2ncccc12 [compound 99]	< 100
100 to 1000	CN(C)CCNc1cc(Nc2cc(-c3cc(Cl)ccc3F)nc3ncccc23)ncn1 [compound 120]	100 to 1000
< 100	CN1CCC(C(=O)Nc2cc(Nc3cc(-c4cc(Cl)ccc4F)nc4ncccc34)ncn2)CC1 [compound 111]	< 100
< 100	CC(C)(C)CC(=O)Nc1cc(Nc2cc(-c3cc(Cl)ccc3F)nc3ncccc23)ccn1 [compound 87]	< 100

From patent publication US8815893B2, “Hetarylaminonaphthyridines” (Merck Patent GmbH, priority 2010, dated 2014)
